# Experiment: Partition coefficient between octanol and water by UV/visible absorption
# Format: physicochemical
# Conditions: partition coefficient n-octanol/water, 25°C; read-out: P
# Experimental: As used herein, it provides a measure of the hydrophobicity of the biocide.
# A variety of commercial and hydrophobically-modified biocides have been studied. Partition coefficients between octanol and water have been determined at 25°C by UV/visible absorption. First, the calibration curve of each biocide was determined as optical density (ODabs) versus concentration of biocide in µg/g (ppm) of water for the predominantly water-soluble materials and µg/g of octanol for the predominantly oil-soluble biocides.
# A known amount of biocide was placed in a glass vessel containing either 10ml of water or 10ml of octanol depending on the solubility of the biocide. An equal volume of the other solvent was added and the glass vessel sealed. The vessel was shaken vigorously for a few minutes and then every few hours for more than 48 hours. Each mixture was placed in a sealed separating funnel and left for a further 24 hours. The water phase of each mixture was removed and the UV/visible spectra run against water with appropriate dilutions to bring absorbance between 0 and 1.5 for the commercial biocides and the octanol fractions were examined for the hydrophobically modified biocides.
row,Structure (SMILES),logP
1,CCCCCCCCCCCC[N+](C)(C)CCOc1ccccc1 [Domiphen™],~1.7
2,CCCCCCCCn1sc(Cl)cc1=O [Compound 3],> 2.75
3,CCCCCCCCCCCCCCCCCCn1sc(Cl)cc1=O [Compound 4],> 2.68
4,CCCCCCCCCCCCCCCCn1sc2ccccc2c1=O [Compound 2],> 2.11
5,CCCCCCCCn1sc2ccccc2c1=O [Compound 1],> 2.52
6,Cn1sc2c(c1=O)CCC2 [Promexal™],~0.653
